Laboratory results taken from article PMC6355697, “Binding Specificity of Native Odorant-Binding Protein Isoforms Is Driven by Phosphorylation and O-N-Acetylglucosaminylation in the Pig Sus scrofa” (Frontiers in Endocrinology, 2019).
Where two headings read alike, the source gives them in different places.

Columns and labels:
OBP-native-iso1 [1] = biological target: T1, OBP-native-iso1 (Sus scrofa, UniProt P81245); experiment: Fluorescence titration with the probe AMA; assay type: binding; conditions: OBP-native-iso1 at 2.5 μM, 50 mM Tris buffer pH 7.8, estimated
T1 construct: Proteins were gently extracted from RM of pre-pubertal males of S. scrofa; from tissue; host or cells: RM (respiratory mucosa) extract of pre-pubertal male pigs, purified by two rounds of anion-exchange HPLC
T1 sequence (P81245 1-157): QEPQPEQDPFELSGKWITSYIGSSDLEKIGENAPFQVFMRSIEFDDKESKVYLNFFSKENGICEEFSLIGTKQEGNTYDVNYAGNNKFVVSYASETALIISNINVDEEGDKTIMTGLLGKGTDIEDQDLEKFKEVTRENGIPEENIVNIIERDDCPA
Experimental: (§1) Androstenone (3-keto-5α, 16-androstene), androstenol (3α-hydroxy-5α-androst-16-ene), testosterone (17β-hydroxy-3-oxo-4-androstene), palmitic acid (hexadecanoic acid), myristic acid (tetradecanoic acid), and AMA (1-aminoanthracene) were purchased from Sigma-Aldrich. UV-visible spectra were recorded on a Cary-100 double beam spectrometer (Varian) with a cell of 0.5 cm path length. The protein concentration was calculated by UV-visible spectroscopy, by using the molar extinction coefficient of 11,740 M^−1cm^−1 for OBP (calculated by the software “ProtParam tool” at www.expasy.org) at the maximum wavelength of absorption (280 nm). Steady state fluorescence measurements were performed on a Fluoromax-3 (Jobin-Yvon) spectrofluorimeter using a micro quartz cell (0.5 cm light-path) with a reflecting window. 1-Aminoantracene (AMA) was used as a fluorescent probe. The experimental conditions and data treatment have been described previously ([17]). The dissociation constant (Kd-AMA) of the OBP-AMA complex was calculated from the binding curve by fitting the experimental data with the use of the computer program Origin 7.5 (OriginLab Corporation). The affinities of the five ligands were measured in a competitive binding assay with AMA as the fluorescent probe. AMA was dissolved in 100% ethanol to yield a 1 mM stock solution. For protein titration, aliquots of AMA were successively added to the protein at 1 or 2.5 μM in 50 mM Tris buffer (pH 7.8) and emission spectra were acquired after a 15 min equilibration period. Competitive binding experiments were then carried out with different protein and ligand concentrations. The spectra were recorded 15 min after the ligand addition, and competition was monitored by following the decrease in intensity of fluorescence associated with the band of AMA bound to the protein. The apparent Kd values of the ligand-protein complexes were calculated as described in Brimau et al. ([17]).
(§2) We measured the affinity of the four native OBP isoforms for the five selected ligands under the same experimental conditions that were used previously for recombinant OBP isoforms ([17]). The four isoforms were first titrated with the fluorescent probe, AMA. OBP-native-iso3 was collected in smaller quantities than the 3 other isoforms and was used at a 1 μM concentration instead of 2.5 μM and saturated with 2 μM AMA, instead of 3.75 μM AMA. […] Two classes of isoforms, -iso1 and -iso2, bound the two fatty acids and not the steroids.

OBP-native-iso2 [2] = biological target: T2, OBP-native-iso2 (Sus scrofa, UniProt P81245); experiment: Fluorescence titration with the probe AMA; assay type: binding; conditions: OBP-native-iso2 at 2.5 μM, 50 mM Tris buffer pH 7.8, estimated
T2 construct: Proteins were gently extracted from RM of pre-pubertal males of S. scrofa; from tissue; host or cells: RM (respiratory mucosa) extract of pre-pubertal male pigs, purified by two rounds of anion-exchange HPLC
T2 sequence (P81245 1-157): T1 sequence (P81245 1-157)
Experimental: as §1, §2

OBP-native-iso3 [3] = biological target: T3, OBP-native-iso3 (Sus scrofa, UniProt P81245); experiment: Fluorescence titration with the probe AMA; assay type: binding; conditions: OBP-native-iso3 at 1 μM, 50 mM Tris buffer pH 7.8, estimated
T3 sequence (P81245 1-157): T1 sequence (P81245 1-157)
Experimental: as §1, §2

OBP-native-iso4 [4] = biological target: T4, OBP-native-iso4 (Sus scrofa, UniProt P81245); experiment: Fluorescence titration with the probe AMA; assay type: binding; conditions: OBP-native-iso4 at 2.5 μM, 50 mM Tris buffer pH 7.8, estimated
T4 sequence (P81245 1-157): T1 sequence (P81245 1-157)
Experimental: as §1, §2

OBP-native-iso1 [5] = biological target: T1, OBP-native-iso1; experiment: Competitive fluorescence binding assay with AMA as probe; conditions: for IC50: OBP-native-iso1 2.5 μM saturated with 3.75 μM AMA, competitor 0 to 6 μM; for Kd: calculated dissociation constant from AMA competition
Experimental: as §1, §2
(§3) Figure 6 Competitive binding assays of five selected ligands of biological relevance to native OBP isoforms from S. scrofa. (A) OBP-native-iso1; (B) OBP-native-iso2; (C) OBP-native-iso3; and (D) OBP-native-iso4. Proteins were used at 2.5 μM (A,B,D) or 1 μM (C) concentration and were saturated with 3.75 μM (A,B,D) or 2 μM (C) of the fluorescent probe 1-AMA. Competitors were added at increasing concentration from 0 to 6 μM (A,B) or to 15 μM (C,D).

OBP-native-iso2 [6] = biological target: T2, OBP-native-iso2; experiment: as above; conditions: for IC50: OBP-native-iso2 2.5 μM saturated with 3.75 μM AMA, competitor 0 to 6 μM; for Kd: calculated dissociation constant from AMA competition
Experimental: as §1, §2, §3

OBP-native-iso3 [7] = biological target: T3, OBP-native-iso3; experiment: as above; conditions: for binding of ligand (in words) / Kd: OBP-native-iso3; for IC50: OBP-native-iso3 1 μM saturated with 2 μM AMA, competitor 0 to 15 μM; for Kd: calculated dissociation constant from AMA competition
Experimental: as §1, §2, §3

OBP-native-iso4 [8] = biological target: T4, OBP-native-iso4; experiment: as above; conditions: for binding of ligand (in words) / Kd: OBP-native-iso4; for IC50: OBP-native-iso4 2.5 μM saturated with 3.75 μM AMA, competitor 0 to 15 μM; for Kd: calculated dissociation constant from AMA competition
Experimental: as §1, §2, §3

OBP-native-iso4 [9] = experiment: as above; design: species or system Sus scrofa; conditions: ratio of Ka values
Experimental: as §1, §2, §3

OBP-Pichia-iso3 = tested on: OBP-Pichia-iso3; design: method as in PMID 20589419; conditions: OBP-Pichia-iso3, recombinant, phosphorylated only; cited from earlier work

SMILES | IC50 (OBP-native-iso1 [5]; read-out: IC50) [nM] | IC50 (OBP-native-iso2 [6]; read-out: IC50) [nM] | binding of ligand (in words) (OBP-native-iso3 [7]) | IC50 (OBP-native-iso3 [7]; read-out: IC50) [nM] | Kd (OBP-native-iso3 [7]) [nM] | binding of ligand (in words) (OBP-native-iso4 [8]) | IC50 (OBP-native-iso4 [8]; read-out: IC50) [nM] | Kd (OBP-native-iso4 [8]) [nM] | Kd (OBP-native-iso1 [5]; OBP-native-iso1) [nM] | Kd (OBP-native-iso2 [6]; OBP-native-iso2) [nM] | binding of ligand (in words) (OBP-Pichia-iso3) | other results
Nc1cccc2cc3ccccc3cc12 [AMA, 1-aminoanthracene] |  |  |  |  |  |  |  |  |  |  |  | Kd (OBP-native-iso1 [1]): 370 ± 20 nM; Kd (OBP-native-iso2 [2]): 230 ± 20 nM; Kd (OBP-native-iso3 [3]): 840 ± 80 nM; Kd (OBP-native-iso4 [4]): 500 ± 20 nM
C[C@]12CC[C@@H](O)C[C@@H]1CC[C@@H]1[C@@H]2CC[C@]2(C)C=CC[C@@H]12 [Androstenol, 3α-hydroxy-5α-androst-16-ene] | > 6000 | > 6000 | bind | 2590 | 490 | bind | 1430 | 160 |  |  |  | Ka value, OBP-native-iso4 compared with OBP-native-iso3 (OBP-native-iso4 [9]): three times greater
C[C@]12CCC(=O)C[C@@H]1CC[C@@H]1[C@@H]2CC[C@]2(C)C=CC[C@@H]12 [Androstenone, 3-keto-5α, 16-androstene] | > 6000 | > 6000 | bind | 1280 | 230 | bind | 1890 | 220 |  |  |  | 
CCCCCCCCCCCCCC(=O)O [Myristic acid, tetradecanoic acid] | 330 | 1030 |  |  |  |  | > 15000 |  | 50 | 110 | to a lesser extent | 
CCCCCCCCCCCCCCCC(=O)O [Palmitic acid, hexadecanoic acid] | 1030 | 1510 |  |  |  |  | > 15000 |  | 160 | 160 | not able to bind | 
C[C@]12CC[C@H]3[C@@H](CCC4=CC(=O)CC[C@@]43C)[C@@H]1CC[C@@H]2O [Testosterone, 17β-hydroxy-3-oxo-4-androstene, reference compound] |  |  | None of the four native isoforms bound |  |  | None of the four native isoforms bound |  |  |  |  |  | binding of ligand (in words) (OBP-native-iso1 [5]; OBP-native-iso1): None of the four native isoforms bound; IC50 (OBP-native-iso1 [5]): > 6000 nM; binding of ligand (in words) (OBP-native-iso2 [6]; OBP-native-iso2): None of the four native isoforms bound; IC50 (OBP-native-iso2 [6]): > 6000 nM; IC50 (OBP-native-iso3 [7]): > 6000 nM; IC50 (OBP-native-iso4 [8]): > 6000 nM
